In patent US6423508B1, “Polynucleotide sequences of human EDG-1c” (SmithKline Beecham Corporation, priority 1998, dated 2002):
pEC50: −log10 of the molar value. Read-outs that look alike come from different tables or passages of the source.

Legend:
[1] = tested on: endogenous receptors of RBL 2H3 cells; assay: Responses of control ligands of endogenous receptors in RBL 2H3 EDG-1c cells (calcium mobilization, FLIPR); format: cell-based; details: FIG. 8
Protocol: (§1) A number of cell lines were examined to identify one that would not respond to S-1-P through an endogenous receptor. […] Stable cell lines of the EDG1-c receptor were prepared in RBL 2H3 cell line. The expression of functionally active clones were followed using Fluorescent imaging plate reader (FLIPR).

[2] = biological target: T1, human EDG-1c receptor (Homo sapiens, UniProt P21453); assay: S-1-P-induced FUS1-LacZ reporter gene expression in yeast expressing human EDG-1c; format: cell-based; details: yeast FUS1-LacZ cells expressing human EDG-1c, FIG. 5
T1 construct: expressed in transfected cells
T1 sequence (P21453 whole entry): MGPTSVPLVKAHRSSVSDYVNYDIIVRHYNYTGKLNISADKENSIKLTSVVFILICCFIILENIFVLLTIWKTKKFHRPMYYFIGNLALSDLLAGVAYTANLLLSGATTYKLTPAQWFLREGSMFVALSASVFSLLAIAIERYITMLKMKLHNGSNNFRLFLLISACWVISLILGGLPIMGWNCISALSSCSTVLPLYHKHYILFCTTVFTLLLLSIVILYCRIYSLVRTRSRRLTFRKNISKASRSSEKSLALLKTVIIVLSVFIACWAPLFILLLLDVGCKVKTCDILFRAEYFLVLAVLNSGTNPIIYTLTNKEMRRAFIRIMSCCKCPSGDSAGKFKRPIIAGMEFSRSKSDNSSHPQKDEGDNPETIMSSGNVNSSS
From the text: The yeast strain(s) used contain mutations in genes in the pheromone response pathway, e.g., (i) deletion of the STE2 or STE3 gene encoding the endogenous G-protein coupled pheromone receptors; (ii) deletion of the FAR1 gene encoding a protein that normally associates with cyclin-dependent kinases leading to cell cycle arrest; and (iii) construction of reporter genes fused to the FUS1 gene promoter (where FUS1 encodes a membrane-anchored glycoprotein required for cell fusion). The downstream reporter (FUS1-LacZ) permits a colorimetric or fluorimetric readout in response to ligand.

[3] = biological target: T1, human EDG-1c receptor; assay: Calcium mobilization in RBL 2H3 cells stably transfected with human EDG-1c receptor (FLIPR); format: cell-based
Protocol: as §1

[4] = tested on: isolated perfused rabbit heart; assay: Functional effects on isolated perfused rabbit heart; details: 10 nM
Protocol: The functional effects of […] have been examined in isolated perfused rabbit heart. […] An increased in AoP (aortic pressure), reflecting a vasoconstrictor effect was observed, i.e., about 30% of increase at 5 min of treatment compared to the vehicle (methanol 0.001%).

[5] = tested on: rat neonatal cardiomyocytes; assay: Cellular hypertrophy in rat neonatal cardiomyocytes in culture; format: cell-based
Protocol: […] was tested in its ability to induce hypertrophy in an in vitro neonatal cardiomyocyte model. The assessment of cardiomyocyte hypertrophy is measured using four different parameters: protein synthesis (tritiated phenylalanine incorporation and protein content increase), tritiated thymidine incorporation (evaluation of fibroblast contamination), Brain Natriuretic Peptide (BNP) release and morphological parameters. Phenylephrine (PE) at 100 μM concentration is used as internal control experiments. […] Cardiomyocytes in culture display features of myocyte hypertrophy observed in vivo, such as changes in morphology (vizualised using light microscopy after staining with crystal violet), protein content, and pattern of gene expression.

[6] = tested on: untransfected HEK 293 cells (endogenous receptors that respond to S-1-P); assay: S-1-P-induced Ca2+ mobilization in untransfected HEK 293 cells (FLIPR); format: cell-based; details: FIG. 3
From the text: The data were generated with the 96 well Fluorescent Imaging Plate Reader (FLIPR). Each point is the mean of 6-8 wells read on FLIPR.

Nc1ncnc2c1ncn2[C@@H]1O[C@H](COP(=O)(O)OP(=O)(O)OP(=O)(O)O)[C@@H](O)[C@H]1O [ATP]
EC50 of endogenous-receptor ligands [1]: expected EC50 values

C[C@@H]1O[C@H](C[N+](C)(C)C)C[C@H]1O [Muscarine]
response of RBL 2H3 EDG-1c cells to control ligand [1]: did not respond

CCCCCCCCCCCCC/C=C/[C@@H](O)[C@@H](N)COP(=O)(O)O [S-1-P, sphingosine 1-phosphate]
expression of beta-galactosidase (FUS1-LacZ reporter response) [2]: receptor-dependent response | pEC50 ([3]; several RBL 2H3 EDG1-c clones, FIG. 7, read-out: EC50, calcium mobilization, best clones): 7.70 to 8.00 | LVEDP (left ventricular end-diastolic pressure) [4]: marked reduction | increase in AoP (aortic pressure), vasoconstrictor effect ([4]; at 5 min of treatment, compared to the vehicle (methanol 0.001%)): about 30% | inotropic effect (pressure value) ([4]; at 10 min of drug administration, controls 96.09±6 mm Hg): 84.7±6.3 mm Hg | cellular hypertrophy (increase of protein content, phenylalanine incorporation and BNP secretion to control cell values) ([5]; 10 nM, 100 nM and 1 μM (n=3), each concentration): induced a cellular hypertrophy | increase of phenylalanine incorporation to the control cell values ([5]; 1 μM (n=3)): 30.1%±9.2 | increase of protein content to the control cell values ([5]; 1 μM (n=3)): 35.6%±6.3 | increase of thymidine incorporation to the control cell values ([5]; 1 μM (n=3)): 11.4%±1.8 | BNP secretion vs. control ([5]; S-1-P treated cardiomyocyte vs. control): four fold higher | calcium mobilization response [6]: robust calcium mobilization response

CCCCCCCCCCCCCCCC(O)C(N)COP(=O)(O)O (stereo not drawn) [dihydro-S-1-P, di-hydro sphingosine 1-phosphate]
pEC50 [3]: 7.70 to 8.00

CCCCC/C=C\C\C=C/C=C/C=C/[C@@H](SC[C@H](N)C(=O)NCC(=O)O)[C@@H](O)CCCC(=O)O [leukotriene D4]
EC50 of endogenous-receptor ligands [1]: expected EC50 values

lysophosphatidic acid
calcium mobilization response of RBL 2H3 EDG-1c cells ([3]; best clones, FIG. 8): did not respond

sphingosine phosphorylcholine
EC50, calcium mobilization through the EDG1-c receptor (in words) ([3]; best clones, FIG. 8): in the uM range | calcium mobilization response of RBL 2H3 EDG-1c cells ([3]; best clones, FIG. 8): weakly
